According to ChEMBL document CHEMBL4627367, “Structure-based design and synthesis of novel furan-diketopiperazine-type derivatives as potent microtubule inhibitors for treating cancer” (Bioorg Med Chem, 2020):
Active and inactive are the calls of the source. The calls are words filed in the database; no cut-off is given here.

Tests used:
[1] = test system: NCI-H460; assay: Cytotoxicity against human NCI-H460 cells assessed as reduction in cell viability after 72 hrs by MTT assay; assay type: functional, cell-based; conditions: NCI-H460, 72 h
[2] = test system: BXPC-3; assay: Cytotoxicity against human BxPC3 cells assessed as reduction in cell viability incubated for 72 hrs by MTT assay; assay type: functional, cell-based; conditions: BXPC-3, 72 h
[3] = test system: HT-29; assay: Cytotoxicity against human HT-29 cells assessed as reduction in cell viability after 72 hrs by MTT assay; assay type: functional, cell-based; conditions: HT-29, 72 h
[4] = target: T1, Tubulin (Homo sapiens) (UniProt P68371+Q9H4B7+P0DPH7+P68366+Q13509+Q71U36+P04350+Q3ZCM7+P07437+P68363+Q9BQE3+Q6PEY2+Q13885+Q9BVA1+Q9BUF5); assay: Inhibition of tubulin in human NCI-H460 cells assessed as inhibition of microtubule polymerization at 10 nM after 24 hrs by immunofluorescence assay; assay type: cell-based
[5] = target: T1, Tubulin (Homo sapiens); assay: Inhibition of tubulin in human NCI-H460 cells assessed as inhibition of microtubule polymerization at 2 nM after 24 hrs by immunofluorescence assay; assay type: cell-based

Structure (SMILES)	IC50 [1] [nM]	IC50 [2] [nM]	IC50 [3] [nM]	inhibition [4]	inhibition [5]
O=c1[nH]/c(=C\c2ccccn2)c(=O)[nH]/c1=C\c1cccc(Oc2ccc(F)cc2)c1	49.1				
O=c1[nH]/c(=C\c2ncc[nH]2)c(=O)[nH]/c1=C\c1cccc(Oc2ccc(F)cc2)c1	> 1000				
CC(C)c1[nH]cnc1/C=c1\[nH]c(=O)/c(=C/c2cccc(Oc3ccc(F)cc3)c2)[nH]c1=O	8.8	3.4	3.7	Active	
CC(C)(C)c1[nH]cnc1/C=c1\[nH]c(=O)/c(=C/c2ccccc2)[nH]c1=O [PLINABULIN]		5.8	6.6	Active	
CC(C)(C)c1[nH]cnc1/C=c1\[nH]c(=O)/c(=C/c2cccc(C(=O)c3ccc(F)cc3)c2)[nH]c1=O		0.6	0.6		Active
O=c1[nH]/c(=C\c2ccc([N+](=O)[O-])o2)c(=O)[nH]/c1=C\c1cccc(Oc2ccc(F)cc2)c1	> 1000				
O=c1[nH]/c(=C\c2ccc(CO)o2)c(=O)[nH]/c1=C\c1cccc(Oc2ccc(F)cc2)c1	41.5				
O=c1[nH]/c(=C\c2nc3ccccc3[nH]2)c(=O)[nH]/c1=C\c1cccc(Oc2ccc(F)cc2)c1	> 1000				
Cc1[nH]cnc1/C=c1\[nH]c(=O)/c(=C/c2cccc(Oc3ccc(F)cc3)c2)[nH]c1=O	47.6				
O=c1[nH]/c(=C\c2ccc(Cl)o2)c(=O)[nH]/c1=C\c1cccc(Oc2ccc(F)cc2)c1	180				
O=c1[nH]/c(=C\c2ccco2)c(=O)[nH]/c1=C\c1cccc(Oc2ccc(F)cc2)c1	154				
COCc1ccc(/C=c2\[nH]c(=O)/c(=C/c3cccc(Oc4ccc(F)cc4)c3)[nH]c2=O)o1	14	6.6	7	Active	
CC(C)c1[nH]cnc1/C=c1\[nH]c(=O)/c(=C/c2cccc(C(=O)c3ccc(F)cc3)c2)[nH]c1=O	3.2	0.6	0.8	Active	
O=c1[nH]/c(=C\c2cccc(Oc3ccc(F)cc3)c2)c(=O)[nH]/c1=C\c1ccccc1	389				
CC(C)(C)c1[nH]cnc1/C=c1\[nH]c(=O)/c(=C/c2cccc(Oc3ccc(F)cc3)c2)[nH]c1=O		3.2	2.1	Active	
O=c1[nH]/c(=C\C2CCCCC2)c(=O)[nH]/c1=C\c1cccc(Oc2ccc(F)cc2)c1	> 1000				
Cc1[nH]cnc1/C=c1\[nH]c(=O)/c(=C/c2cccc(C(=O)c3ccc(F)cc3)c2)[nH]c1=O	15.9				
O=C(c1ccc(F)cc1)c1cccc(/C=c2\[nH]c(=O)/c(=C/c3c[nH]cn3)[nH]c2=O)c1	278	4.3	5.1		
COCc1ccc(/C=c2\[nH]c(=O)/c(=C/c3cccc(C(=O)c4ccc(F)cc4)c3)[nH]c2=O)o1	2.9	2	2.2	Active	
O=c1[nH]/c(=C\c2cccc(Oc3ccc(F)cc3)c2)c(=O)[nH]/c1=C\c1cccnc1	> 1000				
Cc1ccc(/C=c2\[nH]c(=O)/c(=C/c3cccc(C(=O)c4ccc(F)cc4)c3)[nH]c2=O)o1	5.3	3.7	3.3		
O=c1[nH]/c(=C\c2ccc(Br)o2)c(=O)[nH]/c1=C\c1cccc(Oc2ccc(F)cc2)c1	361				
O=c1[nH]/c(=C\c2nc[nH]c2C2CC2)c(=O)[nH]/c1=C\c1cccc(Oc2ccc(F)cc2)c1	15.2	9.4	7.4		
O=C(c1ccc(F)cc1)c1cccc(/C=c2\[nH]c(=O)/c(=C/c3nc[nH]c3C3CC3)[nH]c2=O)c1	2.8	1.4	1.4		
Cc1ccc(/C=c2\[nH]c(=O)/c(=C/c3cccc(Oc4ccc(F)cc4)c3)[nH]c2=O)o1	30				
O=c1[nH]/c(=C\c2cccs2)c(=O)[nH]/c1=C\c1cccc(Oc2ccc(F)cc2)c1	> 1000				
O=c1[nH]/c(=C\c2cc3ccccc3o2)c(=O)[nH]/c1=C\c1cccc(Oc2ccc(F)cc2)c1	347				
O=c1[nH]/c(=C\c2c[nH]cn2)c(=O)[nH]/c1=C\c1cccc(Oc2ccc(F)cc2)c1	478				
